Earlier results in article PMC3170264 (Retrovirology, 2011).

System: Y143 mutant HIV-1 integrase
Conditions: cited from earlier work

SMILES: COc1cc2c(cc1Cc1cccc(Cl)c1F)c(=O)c(C(=O)O)cn2[C@H](CO)C(C)C [elvitegravir]
- activity against Y143 mutant HIV-1 integrase: fully active
